Measurements published in US20230044449A1, “NICLOSAMIDE FORMULATIONS AND METHODS OF USE AS CONTRACEPTIVE” (YourChoice Therapeutics, Inc., priority 2020, published 2023).
Where two headings read alike, the source gives them in different places.

Experiments:
human sperm = assay: Sperm motility of fresh human semen mixed with different concentrations of niclosamide (FIG. 1); type: cell-based
Procedure: FIG. 1 is a graph depicting the dose dependent effect of niclosamide dissolved in DMSO, on sperm motility. Fresh human semen samples were mixed with the different concentrations of niclosamide in vitro, followed by analysis of sperm motility within 2 minutes. The x-axis depicts the different concentrations of niclosamide mixed with the semen sample. The x-axis, from Left to Right: the gray bar depicts an untreated semen sample, the blue bar depicts a vehicle control, and the eight pink bars depict the increasing concentrations of niclosamide tested. […]
Sperm motility is a functional measurement of the sperm themselves. Sperm may be sampled either directly from semen or from washed sperm samples, and assessed for motility either manually or by CASA (Computer Assisted Sperm Analysis) (Chapter 59—Male Reproductive System. Systems Toxicologic Pathology. Dianne M. Creasy, Robert E. Chapin, in Haschek and Rousseaux's Handbook of Toxicologic Pathology (Third Edition), 2013; Amann R P et al. Computer-assisted sperm analysis (CASA): capabilities and potential developments. Theriogenology. 2014 Jan. 1; 81(1):5-17). Sperm motility (expressed as %) may be evaluated in duplicate within 1 h of semen collection, by counting moving and nonmoving sperm in several microscopic fields. […] Slow-moving sperm (class B+C) can be easily and accurately counted compared with rapidly moving (class A) sperm. […]

fresh human semen = assay: Spermicidal effect on mixing with fresh human semen (effective ranges); type: cell-based
Procedure: With niclosamide dissolved in DMSO, a spermicidal effect at ≥10 mM was observed. With niclosamide in formulation, a spermicidal effect at a final concentration between 5 mM and 7.5 mM or higher, was observed. The effective range for niclosamide was determined to be from 5-150 mM. Ranges of: A spermicidal effect at ≥50% (v/v/) was observed when mixing polyethylene glycol-400 (PEG-400) with fresh human semen. The effective range for PEG-400 was determined to be from 50-65%.

[1] = Saturation solubility in buffers (shake flask); type: physicochemical; details: 37° C., 24 hours
Procedure: Solubility was established using 100 mL of each of the chosen buffers, and was conducted using shake flask method. […] Further, the solution was agitated at 37° C. for 24 hours and checked physically for un-dissolved mass. This saturated solution was centrifuged and injected an aliquot in to the chromatograph.

[2] = Solubility in solvents/co-solvents; type: physicochemical
Procedure: Solubility of the drug was determined in selected solvent/co-solvents. About 10 g of the solvent was taken and small amount of drug was added in increments till 500 mg. […] These solutions were further diluted quantitatively to about test concentration and analyzed using chromatograph.

[3] = Saturation solubility in various solvents (PEG grades); type: physicochemical
Excerpt: Saturation solubility of niclosamide was studied in the solvents, to know the highest concentration of niclosamide that can be solubilized, as depicted in table 6. [table]

[4] = test system: New Zealand white rabbits; assay: Vaginal irritation study, 7-day intravaginal instillation; type: in vivo
Procedure: Described herein is a study to assess and evaluate vaginal irritation effect of Niclosamide. A total of 9 female New Zealand white rabbits were used for the study described herein. The animals were divided into three groups of three animals in each group: Group 1 (G1) animals treated instilled/treated vehicle control; Group 2 (G2) animals instilled/treated with 2.5 mM dose of niclosamide; and Group 3 (G3) animals instilled/treated with 100 mM dose of niclosamide, as shown in Table 21.
Formulations preparation used for the study were as follows. Vehicle Preparation: 0.85% sodium chloride, 0.1% sorbic acid, 10% lactic acid and 75% water was taken in mortar and pestle and triturated, pH was adjusted to approximately 4.5 using 10 N sodium hydroxide. […] Remaining volume was adjusted with water. Total quantity was triturated again and formulation pH was confirmed with pH paper. […] Total quantity was triturated again and formulation pH was confirmed with pH paper.
Instillation of the treatment was done using prefilled FG-08 tube attached to 1 mL disposable syringe at a dose volume of 1.0 mL per animal continuously for 7 days (from day 1 to 7). Irritation potential was scored in all animals using draize scale daily before Niclosamide instillation and approximately 30 minutes after Niclosamide instillation daily from day 1 to 7 and 24 hours after last test item instillation (day 8). […]

[5] = cited from earlier work
[6] = anhydrous form; cited from earlier work
[7] = Neutral Hydrolysis (3 mL H2O at 100° C. for 8 hours)

Structure (SMILES): O=C(Nc1ccc([N+](=O)[O-])cc1Cl)c1cc(Cl)ccc1O [niclosamide]
- Minimum dose to see effect (inhibits sperm motility), concentration (human sperm; concentration in formulation): 4 mM
- effective niclosamide concentration that causes 100% decrease in number of motile sperm cells (human sperm; fresh semen, 2 minutes, vs control sample): ≥ 10 mM
- concentration with spermicidal effect (fresh human semen; niclosamide dissolved in DMSO): ≥ 10 mM
- effective range for niclosamide (fresh human semen; spermicidal effect): 5 to 150 mM
- Solubility ([1]; pH 1.2 (0.1N HCl)): insoluble and Nil
- Solubility ([1]; pH 2.0 (0.01N HCl)): insoluble and Nil
- Solubility ([1]; pH 3.0 acid phthalate buffer): insoluble and Nil
- Solubility ([1]; pH 4.0 acid phthalate buffer): insoluble and Nil
- Solubility ([1]; pH 4.5 acetate buffer): insoluble and Nil
- Solubility ([1]; pH 5.1 acetate buffer): insoluble and Nil
- Solubility ([2]; polyethylene glycol (PEG 400)): 47.4 mg/g
- Solubility ([2]; polyethylene glycol (PEG 1000)): 46.6 mg/g
- Solubility ([2]; polyethylene glycol (PEG 2000)): 45.6 mg/g
- amount of API solubilised completely ([3]; 10 g of PEG-400, stirring and heating at 50° C. for 40 min): 700 mg was
- amount of API solubilised completely ([3]; 10 g of PEG-1000, stirring and heating at 50° C. for 40 min): 500 mg was
- amount of API solubilised completely ([3]; 10 g of PEG-2000, stirring and heating at 50° C. for 40 min): 500 mg was
- maximum solubility ([3]; in PEG-1000, heating and stirring): 5 % w/w
- maximum solubility ([3]; in PEG-2000, heating and stirring): 5 % w/w
- Clinical Signs and Mortality ([4]; 2.5 and 100 mM, 1.0 mL per animal intravaginally for 7 days, female rabbits): No treatment related mortality and adverse clinical signs
- Gross Pathology of vagina ([4]; rabbit, in vivo): reddened at central lower half to caudal area mildly in all animals belonging to all groups
- % Degradation ([5]; Acid Hydrolysis (3 mL HCl at 100° C. for 8 hours)): No degradation
- potency after degradation ([5]; Alkaline Hydrolysis (0.1N NaOH at 100° C. for 2 hours)): decreased to 97%
- % Degradation ([5]; Alkaline Hydrolysis (0.1N NaOH at 100° C. for 2 hours), listed as drug substance): prone to alkaline hydrolysis
- % Degradation, Impurity 1 [5, 7]: Impurity 1-0.02%
- % Degradation, Impurity 2 [5, 7]: Impurity 2-0.03%
- % Degradation, Impurity 3 ([5]; No stress Conditions): Impurity 3-0.04%
- % Degradation ([5]; Oxidative Hydrolysis (3 mL H2O2 at 100° C. for 8 hours)): No degradation
- % Degradation ([5]; Temperature Effect (100° C. for 8 hours)): No degradation
- % Degradation ([5]; UV Exposure for 7 days): No degradation
- water solubility [6]: about 13.32 μg/mL
